Consider three molecules from US20230158000A1, “PHARMACEUTICAL COMPOSITION FOR TREATING OR PREVENTING VIRAL HEPATITIS AND THE USE THEREOF” (Holy Haid Lab Corp, priority 2020, published 2023).

In one data set the test system is HBeAg and HBsAg. The settings on record: as reported in the literature; cited from earlier work.
Data set [1] has as its system HBeAg in HepG2-NTCP cells. The experiment in a line: microbe, parasite or virus in culture. It is filed as cell-based, HBV. Here is the method:
(§1) On day 0, HepG2-NTCP cells were plated into 48-well plates (7.5×10^4 cells/well). On day 1, change to medium containing 2% DMSO.
(§2) On day 2, the cells were pretreated by adding compounds for 1 hour, and then HepG2-NTCP cells were infected by the addition of […] (compounds were added simultaneously). The test compound was diluted to three concentrations for single treatment, one concentration for combined treatment. Testing in duplicate. The control compound is ETV. See Table 2 for compound concentrations.
(§3) On days 3, 5 and 7, the medium was replaced with fresh medium containing compounds.
(§4) On the ninth day, the supernatant was collected, which was then detected by ELISA for levels of HBeAg and HbsAg, and by qPCR for level of HBV DNA. Meanwhile, detecting cell viability by CellTiter-Glo. Collecting cells for cryopreservation (for spare).
(§5) 2) Detecting the levels of HBeAg and HBsAg in cell culture supernatant by ELISA. The test was performed in accordance with the instructions of the kit, and was briefly described as follows:
(§6) Taking respective 50 μl of standard, sample and control compound, and adding to the detection plate, then adding 50 μl of enzyme conjugate to each well, incubating at 37° C. for 60 minutes, washing the plate with washing solution, blotting dry, then adding 50 μl of premixed luminescent substrate, and incubating at room temperature in the dark for 10 minutes, and finally measuring luminescence values by a microplate reader.
(§7) Inhibition rate of Hbe/sAg (%)=(1-HBe/sAg level of sample compound/HBe/sAg level of DMSO control group)×100%

Data set [2] deals with HBsAg of HepG2-NTCP cells. The experiment in a line: In vitro anti-HBV activity in HepG2-NTCP cells: HBsAg in culture supernatant by ELISA. The class given is cell-based. Here is the method: as §1, §2, §3, §4, §5, §6, §7
On the technique in general: In an ELISA, binding on a coated surface is turned into a signal by an enzyme label.

For data set [3], the system named is HBV DNA of HepG2-NTCP cells. The experiment in a line: In vitro anti-HBV activity in HepG2-NTCP cells: HBV DNA in culture supernatant by qPCR. It is filed as cell-based. Here is the method: as §1, §2, §3, §4
1) Detecting the level of HBV DNA in cell culture supernatant by qPCR
According to the instructions of QIAamp 96 DNA Blood Kit, extracting DNA from cell culture supernatant. The level of HBV DNA was detected by qPCR with HBV-specific primers. PCR reaction: 95° C., 10 min; 95° C., 15 sec, 60° C., 1 min, 40 cycles.
Inhibition rate of HBV DNA (%)=(1-HBV copy number of sample compound group/HBV copy number of DMSO group)×100%

The subject of the next data set is hepatitis B virus (HBV). As to conditions: compared with TDF; cited from earlier work.
For data set [4] the following is noted: compared with TDF; cited from earlier work.
The next data set relates to AAV-HBV mouse models. The experiment in a line: In vivo experiments in AAV-HBV mouse models: plasma HBV DNA, HBsAg, HBeAg. The settings on record: AAV-HBV mice, 60mpk by gavage once a day, 90-day period of administration. Here is the method:
Experimental method: AAV-HBV mouse models were administered by gavage, once a day; the compound group (G10 HD042, i.e., celecoxib): the dose of celecoxib was 60mpk; and the blank group (G1 vehicle control group): 10% DMSO+40% PEG400+5% Tween 80+45% Saline (V/V) solution.
During the 90-day period of administration, blood was collected on the 6th, 13th, 20th, 27th, 34th, 41st, 48th, 55th, 62nd, 69th, […], 83rd, and 90th days, respectively, and the plasma levels of HBV DNA, HBsAg, HBeAg and anti-HBs were tested with the results shown in FIGS. 4 to 5.

A further data set deals with HepG2-NTCP cells. The experiment in a line: Cell viability assay by CellTiter-Glo. It is filed as cell-based. As to conditions: different concentrations, FIG. 7. Here is the method:
as §4
3) Cell Viability Assay by CellTiter-Glo Cell
The cell viability was determined according to the instructions of the CellTiter-Glo kit. The assay is briefly described as follows: Collecting the cell culture supernatant, adding CellTiter-Glo (1:1 dilution of medium) to each well, incubating at room temperature for 10 minutes, and measuring luminescence values with a microplate reader.

The mark [5] stands for this setting: Hepatitis B virus, 216 h, read-out: HBeAg inhibition rate.
Where [6] appears, read: Hepatitis B virus, 216 h, read-out: HBsAg inhibition rate.
The mark [7] stands for this setting: repeated parallel experiments, FIG. 6.

The inhibition is the change of the read-out against control, counted positive when it falls. For the molecule `C=C1C(CO)C(O)CC1n1cnc2c(=O)nc(N)[nH]c21` [ETV, 2-amino-1,9-dihydro-9-[(1S,3R,4S)-4-hydroxy-3-(hydroxymethyl)-2-methylenecyclopentane]-6H-purin-6-one], the “effect on reducing HBeAg and HBsAg” value with HBeAg and HBsAg is reported as “little effect”. Moreover, the inhibition at 0.0001 µM in data set [1] (setting [5]) is -1.35%; in data set [2] (setting [6]) it was 1.22%; in data set [3] (Hepatitis B virus, 216 h, 0.1 nM ETV, HepG2-NTCP cells, supernatant day 9, read-out: HBV DNA inhibition rate), 44.7%.
With `CC(C)OC(=O)[C@H](C)N[P@](=O)(CO[C@H](C)Cn1cnc2c(N)ncnc21)Oc1ccccc1` [Tenofovir alafenamide, Tenofovir Alafenamide], the “antiviral activity relative to tenofovir disoproxil TDF” value in the data set with hepatitis B virus (HBV) is listed as 10 times. Besides, in data set [4], the “half-life relative to tenofovir disoproxil TDF” value is reported as 225 times and the “stability in plasma relative to tenofovir disoproxil TDF” value is 200 times.
Regarding `Cc1ccc(-c2cc(C(F)(F)F)nn2-c2ccc(S(N)(=O)=O)cc2)cc1` [compound of formula 1, celecoxib], in data set [1] (setting [5]), the inhibition at 1 µM amounted to 18%, the inhibition at 10 µM is 50.4% and the inhibition at 20 µM worked out at 78.1%. Also, the “inhibitory effect on HBeAg, repeated cell experiments” value in data set [1] (setting [7]) was “significant dose-dependent manner”. In the data set on AAV-HBV mouse models, the “reduction of plasma level of HBV DNA” value is on record as 0.72 Log 10 copy/mL, the “reduction of plasma level of HBeAg” value was 0.34 Log 10 PEIU/mL and the “reduction of plasma level of HBsAg” value came to 0.76 Log 10 IU/mL. In addition, in data set [2] (setting [6]), the inhibition at 1 µM is 21.5%, the inhibition at 10 µM is -7.65% and the inhibition at 20 µM was found to be 46.1%. Moreover, the “inhibitory effect on HBsAg, repeated cell experiments” value in data set [2] (setting [7]) is given as “significant dose-dependent manner”. In data set [3] (Hepatitis B virus, 216 h, 1 μM compound of formula 1, HepG2-NTCP cells, supernatant day 9, read-out: HBV DNA inhibition rate), the inhibition at 1 µM was 7.59%. Further, the inhibition at 10 µM in data set [3] (Hepatitis B virus, 216 h, 10 μM compound of formula 1, HepG2-NTCP cells, supernatant day 9, read-out: HBV DNA inhibition rate) came out at 49.2%. Further, in data set [3] (Hepatitis B virus, 216 h, 20 μM compound of formula 1, HepG2-NTCP cells, supernatant day 9, read-out: HBV DNA inhibition rate), the inhibition at 20 µM amounted to 73%. In addition, the “inhibitory effect on HBV DNA, repeated cell experiments” value in data set [3] (setting [7]) is “significant dose-dependent manner”. For the same molecule, the “cytotoxicity on HepG2-NTCP cells” value in the data set with HepG2-NTCP cells was “an effect on the virus rather than cytotoxicity”.
